Here are results for eight compounds from patent US10336732B2, “1-heterocyclyl isochromanyl compounds and analogs for treating CNS disorders” (Sunovion Pharmaceuticals Inc., priority 2015, dated 2019).

Structures are written as SMILES.

The experiment has as its system mice. The experiment can be described thus: Neuropharmacological assay (SmartCube), behavioral signature of compound-treated mice. The class given is in vivo. As to conditions: i.p. 15 min before behavioral test, most efficacious dose(s) of 3 doses. The method, boiled down: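 Read-out is an automated video-based behavioral signature, scored as per-class probabilities (e.g., anxiolytic, antidepressant) against reference compounds. Dosing was i.p. at three doses, 15 min pre-test, in NMP, polyethylene glycol and propylene glycol. Values shown are from the most efficacious dose(s).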
Take `Fc1cccc2c1[C@H]([C@@H]1CCN1)OCC2` [Compound I-83, (S)-2-((R)-8-fluoroisochroman-1-yl)azetidine]: the “AD: ADHD (probability that behavioral signature matches class)” value (“AD: ADHD” for short) is on record as “++ (5% ≤ ++ <25%)”, the “AG: analgesic (probability that behavioral signature matches class)” value (from here on “AG: analgesic”) is listed as “++ (5% ≤ ++ <25%)”, the “AX: anxiolytic (probability that behavioral signature matches class)” value (shortened to “AX: anxiolytic”) is “++ (5% ≤ ++ <25%)” and the “CE: cognitive enhancer (probability that behavioral signature matches class)” value (“CE: cognitive enhancer” for short) is on record as “+++ (25% ≤ +++ <50%)”. For the same compound, the “DP: anti-depressant (probability that behavioral signature matches class)” value (“DP: anti-depressant” below) is “++ (5% ≤ ++ <25%)”, the “HA: hallucinogen (probability that behavioral signature matches class)” value (“HA: hallucinogen” below) is listed as “+ (LOQ ≤ + <5%)”, the “MS: mood stabilizer (probability that behavioral signature matches class)” value (“MS: mood stabilizer” for short) was “++ (5% ≤ ++ <25%)” and the “PS: anti-psychotic (probability that behavioral signature matches class)” value (“PS: anti-psychotic” for short) is “+++ (25% ≤ +++ <50%)”. Also, the “SD: sedative hypnotic (probability that behavioral signature matches class)” value (“SD: sedative hypnotic” below) was “+ (LOQ ≤ + <5%)”, the “UN: uncharacterized CNS activity (probability that behavioral signature matches class)” value (from here on “UN: uncharacterized CNS activity”) is “+ (LOQ ≤ + <5%)” and the “XG: anxiogenic (probability that behavioral signature matches class)” value (from here on “XG: anxiogenic”) is on record as “+ (LOQ ≤ + <5%)”.
Turning to `Fc1cccc2c1CCO[C@@H]2[C@@H]1CCN1` [Compound I-94, (S)-2-((S)-5-fluoroisochroman-1-yl)azetidine], the “AD: ADHD” value is “+ (LOQ ≤ + <5%)”, the “AG: analgesic” value is on record as “++ (5% ≤ ++ <25%)”, the “AX: anxiolytic” value was “++ (5% ≤ ++ <25%)” and the “CE: cognitive enhancer” value is recorded as “++ (5% ≤ ++ <25%)”. The “DP: anti-depressant” value is given as “+++ (25% ≤ +++ <50%)”, the “HA: hallucinogen” value is reported as “+ (LOQ ≤ + <5%)”, the “MS: mood stabilizer” value is on record as “+ (LOQ ≤ + <5%)” and the “PS: anti-psychotic” value was “+++ (25% ≤ +++ <50%)”. In addition, the “SD: sedative hypnotic” value is recorded as “+ (LOQ ≤ + <5%)”, the “UN: uncharacterized CNS activity” value was “++ (5% ≤ ++ <25%)” and the “XG: anxiogenic” value was “+ (LOQ ≤ + <5%)”.
`Fc1cccc2c1[C@H]([C@@H]1CCCN1)OCC2` [Compound I-1, (S)-2-((R)-8-fluoroisochroman-1-yl)pyrrolidine]: the “AD: ADHD” value is recorded as “+ (LOQ ≤ + <5%)”, the “AG: analgesic” value is listed as “++ (5% ≤ ++ <25%)”, the “AX: anxiolytic” value is given as “++ (5% ≤ ++ <25%)” and the “CE: cognitive enhancer” value is on record as “++ (5% ≤ ++ <25%)”. Also, the “DP: anti-depressant” value was “++ (5% ≤ ++ <25%)”, the “HA: hallucinogen” value is “+ (LOQ ≤ + <5%)”, the “MS: mood stabilizer” value was “++ (5% ≤ ++ <25%)” and the “PS: anti-psychotic” value is “+++ (25% ≤ +++ <50%)”. The “SD: sedative hypnotic” value is “++ (5% ≤ ++ <25%)”, the “UN: uncharacterized CNS activity” value is reported as “++ (5% ≤ ++ <25%)” and the “XG: anxiogenic” value was “+ (LOQ ≤ + <5%)”.
For `Fc1ccc2c(c1)CCO[C@H]2[C@@H]1CCN1` [Compound I-90, (S)-2-((R)-6-fluoroisochroman-1-yl)azetidine], the “AD: ADHD” value was “+ (LOQ ≤ + <5%)”, the “AG: analgesic” value is “++ (5% ≤ ++ <25%)”, the “AX: anxiolytic” value is “+++ (25% ≤ +++ <50%)” and the “CE: cognitive enhancer” value is listed as “++ (5% ≤ ++ <25%)”. For the same compound, the “DP: anti-depressant” value is on record as “+++ (25% ≤ +++ <50%)”, the “HA: hallucinogen” value is “+ (LOQ ≤ + <5%)”, the “MS: mood stabilizer” value is “+ (LOQ ≤ + <5%)” and the “PS: anti-psychotic” value is on record as “++ (5% ≤ ++ <25%)”. For the same compound, the “SD: sedative hypnotic” value is “++ (5% ≤ ++ <25%)”, the “UN: uncharacterized CNS activity” value is “++ (5% ≤ ++ <25%)” and the “XG: anxiogenic” value was “+ (LOQ ≤ + <5%)”.
For the compound `Fc1cccc2c1CCO[C@@H]2[C@H]1CCN1` [Compound I-96, (R)-2-((S)-5-fluoroisochroman-1-yl)azetidine], the “AD: ADHD” value is on record as “+ (LOQ ≤ + <5%)”, the “AG: analgesic” value is given as “+++ (25% ≤ +++ <50%)”, the “AX: anxiolytic” value was “++ (5% ≤ ++ <25%)” and the “CE: cognitive enhancer” value is “++ (5% ≤ ++ <25%)”. The “DP: anti-depressant” value is given as “+++ (25% ≤ +++ <50%)”, the “HA: hallucinogen” value is recorded as “+ (LOQ ≤ + <5%)”, the “MS: mood stabilizer” value is listed as “++ (5% ≤ ++ <25%)” and the “PS: anti-psychotic” value is reported as “+++ (25% ≤ +++ <50%)”. Also, the “SD: sedative hypnotic” value is reported as “+ (LOQ ≤ + <5%)”, the “UN: uncharacterized CNS activity” value is given as “+ (LOQ ≤ + <5%)” and the “XG: anxiogenic” value is reported as “+ (LOQ ≤ + <5%)”.
As to `Fc1ccc2c(c1)CCO[C@H]2[C@@H]1CCCN1` [Compound I-9, (S)-2-((R)-6-fluoroisochroman-1-yl)pyrrolidine], the “AD: ADHD” value is given as “+ (LOQ ≤ + <5%)”, the “AG: analgesic” value was “++ (5% ≤ ++ <25%)”, the “AX: anxiolytic” value is recorded as “++ (5% ≤ ++ <25%)” and the “CE: cognitive enhancer” value was “++ (5% ≤ ++ <25%)”. Moreover, the “DP: anti-depressant” value is recorded as “++ (5% ≤ ++ <25%)”, the “HA: hallucinogen” value is “+ (LOQ ≤ + <5%)”, the “MS: mood stabilizer” value is “++ (5% ≤ ++ <25%)” and the “PS: anti-psychotic” value is on record as “+++ (25% ≤ +++ <50%)”. Besides, the “SD: sedative hypnotic” value is “++ (5% ≤ ++ <25%)”, the “UN: uncharacterized CNS activity” value is “+++ (25% ≤ +++ <50%)” and the “XG: anxiogenic” value is “+ (LOQ ≤ + <5%)”.
For the compound `Clc1ccc2c(c1)[C@H]([C@@H]1CCCN1)OCC2` [Compound I-29, (S)-2-((R)-7-chloroisochroman-1-yl)pyrrolidine], the “AD: ADHD” value was “+ (LOQ ≤ + <5%)”, the “AG: analgesic” value is given as “++ (5% ≤ ++ <25%)”, the “AX: anxiolytic” value was “+++ (25% ≤ +++ <50%)” and the “CE: cognitive enhancer” value was “+++ (25% ≤ +++ <50%)”. In addition, the “DP: anti-depressant” value is listed as “++ (5% ≤ ++ <25%)”, the “HA: hallucinogen” value was “+ (LOQ ≤ + <5%)”, the “MS: mood stabilizer” value was “++ (5% ≤ ++ <25%)” and the “PS: anti-psychotic” value was “++ (5% ≤ ++ <25%)”. Moreover, the “SD: sedative hypnotic” value was “+ (LOQ ≤ + <5%)”, the “UN: uncharacterized CNS activity” value is “++ (5% ≤ ++ <25%)” and the “XG: anxiogenic” value is reported as “+ (LOQ ≤ + <5%)”.
With `Fc1ccc2c(c1)[C@H]([C@@H]1CCCN1)OCC2` [Compound I-5, (2S)-2-((R)-7-fluoroisochroman-1-yl)pyrrolidine], the “AD: ADHD” value is recorded as “+ (LOQ ≤ + <5%)”, the “AG: analgesic” value is reported as “++ (5% ≤ ++ <25%)”, the “AX: anxiolytic” value is given as “++ (5% ≤ ++ <25%)” and the “CE: cognitive enhancer” value was “++ (5% ≤ ++ <25%)”. Further, the “DP: anti-depressant” value is given as “++ (5% ≤ ++ <25%)”, the “HA: hallucinogen” value is on record as “+ (LOQ ≤ + <5%)”, the “MS: mood stabilizer” value was “++ (5% ≤ ++ <25%)” and the “PS: anti-psychotic” value is on record as “+++ (25% ≤ +++ <50%)”. For the same compound, the “SD: sedative hypnotic” value is given as “+ (LOQ ≤ + <5%)”, the “UN: uncharacterized CNS activity” value is recorded as “+++ (25% ≤ +++ <50%)” and the “XG: anxiogenic” value is “+ (LOQ ≤ + <5%)”.
